Assay results as given in US5763480A, “Inhibitors of cell-medicated disorders” (priority 1994, dated 1998).
Where two headings read alike, the source gives them in different places.

Columns and labels:
cellular proton pump = test: Blocking of cellular proton pump by metal-chelate complexes / stopping of the block by chelating agents; details: for blocking of the cellular proton pump in combination with Tl or In: chelating agent combined with Tl or In
bone resorption [1] = details: cited from earlier work
[2] = tested on: proton pump of the osteoclast ruffled membrane vesicles; format: biochemical; details: read-out: 50% effective concentration, inhibition of vesicle acidification, FIG. 3
Excerpt: The effect of the metal-EDTA complexes on the proton pump of isolated osteoclast ruffled membrane vesicles was studied. For the study, the isolation, preparation and assay of the acidifying ruffled membrane vesicles were accomplished according to the procedures of Blair et al., J. Cell. Biochem., 48, 401-410 (1992).
The y-axis indicates the acidification by the membranes in relation to the molar concentration of the test composition, as indicated on the x-axis.

[3] = Solubility of Tl and In EDTA complexes versus halide salts in physiological saline; format: physicochemical; details: physiological saline / physiological solvents
Excerpt: The pH of the resulting solutions was then raised to pH 7.0 and filtered to achieve sterility. […] The solubility characteristics of these Tl and In complexes were compared to the solubility characteristics of the respective halogen salts.

bone resorption [4] = details: in vivo; cited from earlier work
osteoclasts = test: Inhibition of osteoclast-mediated bone resorption in vitro (release of radiolabelled bone); format: cell-based, laying hens; details: read-out: 50% effective concentration, inhibition of bone resorption by osteoclasts in culture, FIG. 2, up to six days, labelled bone, 10,000 cells per well
Experimental: Osteoclasts were isolated from calcium-deprived, laying hens, and metabolically radiolabelled bone was prepared therefrom (Blair et al., J. Cell Biol., 102, 1164-1172 (1986)). These osteoclasts were cultured in 24 well dishes at 10,000 cells per well, to which were added labelled bone and test compounds. The culture supernatants were assayed for released radioactivity for up to six days after the addition of the labelled bone.
The y-axis indicates the percentage of the total radiolabelled bone that was released by osteoclast activity to the culture supernatant in response to varying the molar concentration (x-axis) of the various test compositions. […] The 50% effective concentrations of suramin and gallium nitrate were 700 nM and 2000 nM, respectively.

[5] = tested on: chloride channel and proton pump of ruffled membrane vesicles; test: Valinomycin reversal test distinguishing chloride channel and proton pump in ruffled membrane vesicles; format: biochemical; details: control measurement, 1 micromolar valinomycin
Experimental: Because both the chloride channel and the proton pump are present in the ruffled membrane vesicles, the inhibition of acidification that was observed was possibly due to effects on either or both of these transporters. The effects of these two transporters were distinguished in other experiments by noting and using the differential effects of valinomycin on the chloride channel and proton pump in the presence of 120 mM K^+. This drug relieves the build-up of membrane potential yet permits proton transport.

[6] = tested on: osteoclast-mediated bone resorption; test: PTH stimulated bone resorption of rats in vivo, serum calcium (hypercalcemia model)
Experimental: The ability of the metal-EDTA complexes to inhibit osteoclast-mediated bone resorption was tested on two groups of experimental rats treated to provide a hypercalcemia model (according to the procedures of Jaeger et al., Am. J. Physiol., 252, E790-E798 (1987)) as compared to two groups of untreated control rats. Experimental rats were surgically parathyroidectomized, and the effectiveness of the parathyroidectomy was gauged by determining the subject rats' serum calcium levels 72 hours post-surgery. A fall in calcium observed at that time reflected the decrease of bone resorption resulting from the removal of the parathyroid glands and the consequent decrease in circulating parathyroid hormone (PTH), a regulator of extra-cellular Ca^++ concentration. […] Serum calcium levels were determined after a 24-hour fast on the third day after the last drug administration and again two weeks later.
All the animals in this study underwent the same two surgical procedures and received PTH via the implanted osmotic pump starting on day 3. […] After the two weeks were complete, serum calcium was determined again and compared to the earlier values and the controls. […]

O=C(O)CN(CC(=O)O)[C@@H]1CCCC[C@H]1N(CC(=O)O)CC(=O)O (relative stereo) [CDTA, trans-1,2-diaminocyclohexane-N,N,N',N'-tetraacetic acid]
stopping of the proton pump-blocking effect by chelating agent (cellular proton pump; In(III) and Tl(III)): stops the cellular proton pump-blocking effect | blocking of the cellular proton pump in combination with Tl or In (cellular proton pump): ineffective

[Al] [Aluminum]
effect on bone calcium loss / bone resorption (bone resorption [1]; gallium nitrate in humans, aluminum in accidental poisoning): inhibit bone resorption

O=C(O)CN(CCN(CC(=O)O)CC(=O)O)CCN(CC(=O)O)CC(=O)O [DPTA, diethylenetriaminepentaacetic acid]
stopping of the proton pump-blocking effect by chelating agent (cellular proton pump; In(III) and Tl(III)): stops the cellular proton pump-blocking effect | blocking of the cellular proton pump in combination with Tl or In (cellular proton pump): ineffective

O=C(O)CN(CCN(CC(=O)O)CC(=O)O)CC(=O)O [EDTA, ethylenediaminetetraacetic acid]
suitability for stopping the effect (cellular proton pump; metal is Tl or In): not a suitable chelating agent for stopping the effect

O=C(O)CN(CCOCCOCCN(CC(=O)O)CC(=O)O)CC(=O)O [EGTA, ethylene glycol bis (o-aminoethyl ether) N,N,N',N'-tetraacetic acid]
stopping of the proton pump-blocking effect by chelating agent (cellular proton pump; Ga(III)): stops the cellular proton pump-blocking effect | blocking of the cellular proton pump in combination with Tl or In (cellular proton pump): ineffective

[Ga] [Ga, gallium]
EC50 [2]: 300 µM

[Tl] [Tl, thallium]
EC50 [2]: 30 µM

[Cl][Tl]([Cl])[Cl] [TlCl3]
solubility (in words) [3]: could not be prepared

O=P(O)(O)C(Cl)(Cl)P(=O)(O)O [clodronate]
adverse effects (bone resorption [4]): development of acute leukemia | efficacy on bone resorption and bone disease (bone resorption [4]): effective not only in Paget's disease, but also in the treatment of hypercalcemia and osteolytic bone disease

CC(O)(P(=O)(O)O)P(=O)(O)O [etidronate]
adverse effects (bone resorption [4]): impaired mineralization and thus, paradoxically, increased bone fragility | efficacy on bone resorption and bone disease (bone resorption [4]): effective inhibitor of bone resorption

O=[N+]([O-])[O-].O=[N+]([O-])[O-].O=[N+]([O-])[O-].[Ga+3] [gallium nitrate]
EC50 (osteoclasts): 2000 nM | adverse effects (bone resorption [1]; gallium compound treatment): anemia, nausea and vomiting, and renal toxicity

Cc1ccc(C(=O)Nc2ccc(S(=O)(=O)O)c3cc(S(=O)(=O)O)cc(S(=O)(=O)O)c23)cc1NC(=O)c1cccc(NC(=O)Nc2cccc(C(=O)Nc3cc(C(=O)Nc4ccc(S(=O)(=O)O)c5cc(S(=O)(=O)O)cc(S(=O)(=O)O)c45)ccc3C)c2)c1 [suramin]
EC50 (osteoclasts; Osteoclast, 144 h): 700 nM

CC(C)[C@@H]1NC(=O)[C@H](C)OC(=O)[C@@H](C(C)C)NC(=O)[C@@H](C(C)C)OC(=O)[C@H](C(C)C)NC(=O)[C@H](C)OC(=O)[C@@H](C(C)C)NC(=O)[C@@H](C(C)C)OC(=O)[C@H](C(C)C)NC(=O)[C@H](C)OC(=O)[C@@H](C(C)C)NC(=O)[C@@H](C(C)C)OC1=O [valinomycin]
recovery of acidification after chloride channel inhibition [5]: recovered when 1 micromolar valinomycin was added

PTH: synthetic PTH (BPTH 1-34 (i.e., rat peptide 1-34), purchased from Bachem California) (AVSEIQLMHNLGKHLASVERMQWLRKKLQDVHNF; Parathyroid hormone; UniProt P04089 32-65, looked up, fragment)
serum calcium (in words) ([6]; PTH without Tl-EDTA or In-EDTA, with or without parathyroid gland): elevated calcium concentrations | serum calcium level relative to pretreatment levels ([6]; constant PTH by subcutaneous osmotic pump, parathyroidectomized rats): 150%
